Laboratory results published in US20220213061A9, “HETEROCYCLIC COMPOUNDS FOR MODULATING NR2F6” (TES Pharma S.r.l., priority 2020, published 2022).
Structures can show the parent of a compound that is named as a salt.

Biological target: T1, recombinant human NR2F6 protein (Homo sapiens, UniProt P10588)
T1 sequence (P10588 1-404): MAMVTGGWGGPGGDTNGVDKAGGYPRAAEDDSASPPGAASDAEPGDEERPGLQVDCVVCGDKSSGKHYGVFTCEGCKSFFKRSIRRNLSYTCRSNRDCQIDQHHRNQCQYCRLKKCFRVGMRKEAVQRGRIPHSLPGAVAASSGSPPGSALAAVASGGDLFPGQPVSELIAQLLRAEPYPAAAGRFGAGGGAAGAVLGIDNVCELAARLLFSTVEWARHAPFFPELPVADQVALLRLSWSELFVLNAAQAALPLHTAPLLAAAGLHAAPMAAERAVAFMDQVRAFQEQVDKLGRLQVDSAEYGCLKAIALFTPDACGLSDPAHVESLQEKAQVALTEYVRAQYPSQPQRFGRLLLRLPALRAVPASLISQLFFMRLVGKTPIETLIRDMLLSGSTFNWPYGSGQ
Experiment: Biochemical NR2F6 binding assay (EnSpire label-free)
Conditions: label-free binding to immobilized purified recombinant human NR2F6; ligands 1 nM to 100 uM, 1% DMSO
Protocol: Purified recombinant human NR2F6 protein was dissolved in immobilization buffer at pH 4.5 and then immobilized in EnSpire-LFB High-Sensitivity User-Activated Plates at the concentration of 50 μg/well plate and left in incubation for 16 h at 4° C. Wells with only immobilization buffer were used as negative control to check the protein coating efficiency. NR2F6 ligands were resuspended in DMSO at the concentration of 10 mM, then dispensed into a plate containing assay buffer at concentrations ranging from 1 nM to 100 uM using an HP-dispenser. DMSO was normalized at the 1% of volume of each well. The final readings were taken over a period of 30 minutes. The label-free responses were measured as shifts in reflected wavelength and are expressed in picometers (pm). Results were analyzed using the EnSpire label-free user interface software, and EC50 and graphs were generated using GraphPad PRISM software. In the tables below, A is <1 μM; B is 1 to 10 μM; C is 10 to 50 μM; and D is >50 μM.

SMILES	EC50
S=C(Nc1cccc2cnccc12)O[C@@H]1CNC[C@H]1c1ccccc1 (racemic) [Compound I-2, (±)-trans-O-(4-Phenylpyrrolidin-3-yl) isoquinolin-5-ylcarbamothioate]	1 to 10 µM
S=C(Nc1cccc2cnccc12)O[C@@H]1CNC[C@@H]1c1ccccc1 (racemic) [Compound I-3, (±)-cis-O-(4-Phenylpyrrolidin-3-yl) isoquinolin-5-ylcarbamothioate]	10 to 50 µM
O=C(Nc1cccc2cnccc12)O[C@@H]1CNC[C@H]1c1ccccc1 (racemic) [Compound I-4, (±)-trans-4-Phenylpyrrolidin-3-yl isoquinolin-5-ylcarbamate]	1 to 10 µM
c1ccc([C@@H]2CNC[C@H]2Oc2nc(-c3cccnc3)cs2)cc1 (racemic) [Compound I-5, (±)-trans-3-{2-[(4-Phenylpyrrolidin-3-yl)oxy]-1,3-thiazol-4-yl}pyridine]	1 to 10 µM
S=C(Nc1cccc2cnccc12)N[C@@H]1CN(Cc2ccccc2)C[C@H]1c1ccccc1 (racemic) [Compound I-6, (±)-trans-1-Isoquinolin-5-yl-3-(1-benzyl-4-phenylpyrrolidin-3-yl)thiourea]	1 to 10 µM
S=C(Nc1cccc2cnccc12)N[C@@H]1CNC[C@H]1c1ccccc1 (racemic) [Compound I-7, (±)-trans-1-Isoquinolin-5-yl-3-(4-phenylpyrrolidin-3-yl)thiourea]	1 to 10 µM
O=S(=O)(N[C@@H]1CNC[C@H]1c1ccccc1)c1cccc2cnccc12 (racemic) [Compound I-8, (±)-trans-N-(4-Phenylpyrrolidin-3-yl)isoquinoline-5-sulfonamide]	> 50 µM
O=C(N[C@@H]1CNC[C@H]1c1ccccc1)c1cccc2cnccc12 (racemic) [Compound I-9, (±)-trans-N-(4-Phenylpyrrolidin-3-yl)isoquinoline-5-carboxamide]	1 to 10 µM
c1ccc([C@H]2CNC[C@@H]2Nc2nc3cnccc3s2)cc1 (racemic) [Compound I-10, (±)-trans-N-[4-Phenylpyrrolidin-3-yl][1,3]thiazolo[4,5-c]pyridin-2-amine hydrochloride]	> 50 µM
O=C(Nc1cccc(-c2cccnc2)c1)[C@@H]1CNC[C@H]1c1ccccc1 (racemic) [Compound I-11, (±)-trans-4-Phenyl-N-[3-(pyridin-3-yl)phenyl]pyrrolidine-3-carboxamide]	1 to 10 µM
O=C(Nc1nccc2ccccc12)[C@@H]1CNC[C@H]1c1ccccc1 (racemic) [Compound I-12, (±)-trans-N-(Isoquinolin-1-yl)-4-phenylpyrrolidine-3-carboxamide dihydrochloride]	> 50 µM
O=C(Nc1cccc(-c2ccccc2)c1)[C@@H]1CNC[C@H]1c1ccccc1 (racemic) [Compound I-13, (±)-trans-N-(Biphenyl-3-yl)-4-phenylpyrrolidine-3-carboxamide]	1 to 10 µM
O=C(Nc1cc2ccccc2cn1)[C@@H]1CNC[C@H]1c1ccccc1 (racemic) [Compound I-14, (±)-trans-N-(Isoquinolin-3-yl)-4-phenylpyrrolidine-3-carboxamide dihydrochloride]	1 to 10 µM
Cc1cc2c(NC(=O)[C@@H]3CNC[C@H]3c3ccccc3)cccc2cn1 (racemic) [Compound I-15, (±)-trans-N-(3-Methylisoquinolin-5-yl)-4-phenylpyrrolidine-3-carboxamide dihydrochloride]	1 to 10 µM
O=C(Nc1cccc2ccccc12)[C@@H]1CNC[C@H]1c1ccccc1 (racemic) [Compound I-16, (±)-trans-N-(Naphthalen-1-yl)-4-phenylpyrrolidine-3-carboxamide hydrochloride]	1 to 10 µM
O=C(Nc1cccc2ncccc12)[C@@H]1CNC[C@H]1c1ccccc1 (racemic) [Compound I-17, (±)-trans-4-Phenyl-N-(quinolin-5-yl)pyrrolidine-3-carboxamide dihydrochloride]	10 to 50 µM
O=C(Nc1cccc2cccnc12)[C@@H]1CNC[C@H]1c1ccccc1 (racemic) [Compound I-18, (±)-trans-4-Phenyl-N-(quinolin-8-yl)pyrrolidine-3-carboxamide dihydrochloride]	10 to 50 µM
O=C(Nc1cccnc1)[C@H]1CNC[C@@H]1c1ccccc1 (racemic) [Compound I-19, (±)-trans-4-Phenyl-N-(pyridin-3-yl)pyrrolidine-3-carboxamide dihydrochloride]	> 50 µM

SMILES	EC50
O=C(Nc1ncc(-c2cccnc2)s1)[C@@H]1CNC[C@H]1c1ccccc1 (racemic) [Compound I-20, (±)-trans-4-Phenyl-N-[5-(pyridin-3-yl)-1,3-thiazol-2-yl]pyrrolidine-3-carboxamide]	1 to 10 µM
O=C(Nc1cccc2cnccc12)[C@@H]1CNC[C@H]1c1ccccc1 (racemic) [Compound I-21, (±)-trans-N-(Isoquinolin-5-yl)-4-phenylpyrrolidine-3-carboxamide dihydrochloride]	1 to 10 µM
O=C(Nc1cccc(-c2ccccc2)c1)[C@@H]1CNC[C@H]1c1cccs1 (racemic) [Compound I-22, (±)-trans-N-(Biphenyl-3-yl)-4-(thiophen-2-yl)pyrrolidine-3-carboxamide hydrochloride]	< 1 µM
O=C(Nc1cccc(-c2ccccc2)c1)[C@@H]1CNC[C@H]1c1ccc(F)cc1 (racemic) [Compound I-23, (±)-trans-N-(Biphenyl-3-yl)-4-(4-fluorophenyl)pyrrolidine-3-carboxamide hydrochloride]	1 to 10 µM
O=C(Nc1ccc(-c2ccccc2)cc1)[C@@H]1CNC[C@H]1c1ccccc1 (racemic) [Compound I-24, (±)-trans-N-(Biphenyl-4-yl)-4-phenylpyrrolidine-3-carboxamide hydrochloride]	1 to 10 µM
O=C(Nc1ccc(-c2cccnc2)cc1)[C@@H]1CNC[C@H]1c1ccccc1 (racemic) [Compound I-25, (±)-trans-4-Phenyl-N-[4-(pyridin-3-yl)phenyl]pyrrolidine-3-carboxamide dihydrochloride]	1 to 10 µM
O=C(Nc1cccc(-c2ccc(F)nc2)c1)[C@@H]1CNC[C@H]1c1ccccc1 (racemic) [Compound I-26, (±)-trans-N-[3-(6-Fluoropyridin-3-yl)phenyl]-4-phenylpyrrolidine-3-carboxamide]	1 to 10 µM
O=C(Nc1cccc(-c2ccccc2)c1)[C@@H]1CNC[C@H]1c1cccc(F)c1 (racemic) [Compound I-27, (±)-trans-N-(Biphenyl-3-yl)-4-(3-fluorophenyl)pyrrolidine-3-carboxamide hydrochloride]	> 50 µM
O=C(Nc1cccc(-c2ccccc2)c1)[C@@H]1CNC[C@H]1c1ccccc1F (racemic) [Compound I-28, (±)-trans-4-(2-Fluorophenyl)-pyrrolidine-3-carboxylic acid biphenyl-3-ylamide hydrochloride]	> 50 µM
COc1ccc([C@@H]2CNC[C@H]2C(=O)Nc2cccc(-c3ccccc3)c2)cc1 (racemic) [Compound I-45, (±)-trans-N-(Biphenyl-3-yl)-4-(4-methoxyphenyl)pyrrolidine-3-carboxamide hydrochloride]	> 50 µM
CN1C[C@@H](C(=O)Nc2cccc(-c3cccnc3)c2)[C@H](c2ccccc2)C1 (racemic) [Compound I-46, (±)-trans-1-Methyl-4-phenyl-N-[3-(pyridin-3-yl)phenyl]pyrrolidine-3-carboxamide]	> 50 µM
CN(C(=O)[C@@H]1CNC[C@H]1c1ccccc1)c1cccc(-c2cccnc2)c1 (racemic) [Compound I-47, (±)-trans-N-Methyl-4-phenyl-N-[3-(pyridin-3-yl)phenyl]pyrrolidine-3-carboxamide]	> 50 µM
O=C([C@@H]1CNC[C@H]1c1ccccc1)N1CC(c2cccnc2)C1 (racemic) [Compound I-48, (±)-trans-(4-Phenylpyrrolidin-3-yl)[3-(pyridin-3-yl)azetidin-1-yl]methanone dihydrochloride]	> 50 µM
O=C(Nc1cccc(-c2cccnc2)c1)[C@@H]1CNC[C@H]1c1cccs1 (racemic) [Compound I-49, (±)-trans-N-[3-(Pyridin-3-yl)phenyl]-4-(thiophen-2-yl)pyrrolidine-3-carboxamide dihydrochloride]	> 50 µM
O=C(Nc1cccc(-c2cccnc2)c1)[C@@H]1CNC[C@H]1C1CCOCC1 (racemic) [Compound I-50, (±)-trans-N-[3-(Pyridin-3-yl)phenyl]-4-(tetrahydro-2H-pyran-4-yl)pyrrolidine-3-carboxamide dihydrochloride]	> 50 µM
O=C(Nc1cccc(Oc2cccnc2)c1)[C@@H]1CNC[C@H]1c1ccccc1 (racemic) [Compound I-52, dihydrochloride]	> 50 µM
O=C(Nc1cccc(-c2cncnc2)c1)[C@@H]1CNC[C@H]1c1ccccc1 (racemic) [Compound I-53, (±)-trans-4-Phenyl-N-[3-(pyrimidin-5-yl)phenyl]pyrrolidine-3-carboxamide trihydrochloride]	> 50 µM
